Here are results for 27 compounds from patent US10494376B2, “Tetrahydroisoquinoline derived PRMT5-inhibitors” (CTXT PTY LTD, priority 2014, dated 2019).

Counter-ions that a name gives are not always drawn.

The target in this experiment is Full-length PRMT5 enzyme (NCBI Reference sequence NP_006100.2) co-expressed with His6-MEP50 (Homo sapiens (Human), UniProt O14744). The experiment can be described thus: Revised PRMT5 Biochemical Assay. As to conditions: 1 μM peptide substrate, 1 μM S-Adenosyl methionine, 4 hours at 37 degree Celsius, Transcreener EPIGEN fluorescence polarisation. Here is the method: Compounds of the invention may be tested for in vitro activity in the following assay: A histone H4 derived peptide is used as substrate (amino acid sequence: […]N H2). Full-length PRMT5 enzyme (NCBI Reference sequence NP_006100.2) was co-expressed with His6-MEP50 in insect cells and purified via Nickel immobilized metal affinity and gel filtration chromatography (“the enzyme”).
Full-length PRMT5 enzyme (NCBI Reference sequence NP_006100.2) co-expressed with His6-MEP50, sequence (O14744 whole entry): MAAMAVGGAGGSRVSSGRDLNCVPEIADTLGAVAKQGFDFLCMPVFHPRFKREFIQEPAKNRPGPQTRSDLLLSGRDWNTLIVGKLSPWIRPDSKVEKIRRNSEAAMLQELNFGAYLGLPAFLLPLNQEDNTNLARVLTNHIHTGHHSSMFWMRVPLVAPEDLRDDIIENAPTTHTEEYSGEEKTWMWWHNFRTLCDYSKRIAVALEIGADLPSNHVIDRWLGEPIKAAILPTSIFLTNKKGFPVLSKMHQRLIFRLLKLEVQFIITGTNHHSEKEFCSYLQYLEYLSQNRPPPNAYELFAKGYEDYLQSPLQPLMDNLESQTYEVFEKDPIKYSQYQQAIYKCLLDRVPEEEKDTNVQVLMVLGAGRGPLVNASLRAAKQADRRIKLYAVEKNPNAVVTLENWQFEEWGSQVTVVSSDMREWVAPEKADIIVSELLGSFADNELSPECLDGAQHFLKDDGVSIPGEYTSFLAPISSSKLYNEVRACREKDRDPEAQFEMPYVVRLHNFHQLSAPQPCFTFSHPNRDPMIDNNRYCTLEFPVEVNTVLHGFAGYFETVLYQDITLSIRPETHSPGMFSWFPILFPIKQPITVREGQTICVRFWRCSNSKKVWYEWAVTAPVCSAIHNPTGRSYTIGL
Full-length PRMT5 enzyme (NCBI Reference sequence NP_006100.2) co-expressed with His6-MEP50, sequence (Q9BQA1 whole entry partner): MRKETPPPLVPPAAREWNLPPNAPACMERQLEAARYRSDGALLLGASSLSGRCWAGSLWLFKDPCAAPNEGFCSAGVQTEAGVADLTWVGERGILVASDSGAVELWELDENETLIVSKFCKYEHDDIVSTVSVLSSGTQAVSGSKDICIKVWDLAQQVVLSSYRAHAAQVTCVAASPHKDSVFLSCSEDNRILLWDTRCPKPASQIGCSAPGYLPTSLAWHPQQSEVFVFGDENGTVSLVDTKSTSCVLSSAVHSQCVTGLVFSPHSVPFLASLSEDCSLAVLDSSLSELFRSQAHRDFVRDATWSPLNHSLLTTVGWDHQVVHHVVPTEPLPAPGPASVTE
The 6 μL reactions are run in Greiner brand black 384-well low volume assay plates. All reactions contained assay buffer (phosphate buffered saline, 0.01% (v/v) Tween-20, 0.01% (w/v) albumin from chicken egg white, 1 mM Dithiothreitol, 1 μM peptide substrate, 1 μM S-Adenosyl methionine, and 15 ng/reaction enzyme, with the enzyme being omitted from negative control reactions. Compounds were added in a volume of 100 nL from dilution series prepared in DMSO, positive and negative control reactions receiving the same volume DMSO without compound. The plates were sealed with adhesive seals and incubated for 4 hours at 37 degree Celsius. Reaction progress was measured using the Transcreener™ EPIGEN methyltransferase assay (BellBrook Labs, Madison, Wis.) as recommended by the manufacturer. To each reaction 2 μL detection mix were added, containing coupling enzymes, fluorescence polarisation tracer, and AMP antibody. Plates were incubated for 90 minutes before being read on a PerkinElmer EnVision™ plate reader in fluorescence polarisation mode. IC50 values were obtained from the raw readings by calculating percent inhibition (%1) for each reaction relative to controls on the same plate (% I=(I−CN)/(CP−CN) where CN/CP are the averages of the negative/positive reactions, respectively), then fitting the %1 data vs. compound concentration [I] to % I=(A+((B−A)/(1+((C/[I])^D)))) where A is the lower asymptote, B is the upper asymptote, C is the IC50 value, and D is the slope.
Background: Polarisation of emitted light reports the rotation of a fluorescent probe.
For orientation: IC50 means the point on the concentration scale where inhibition reaches its midpoint. As for `CC(C)Oc1ccc(C(=O)NC[C@@H](O)[C@@H]2Cc3ccccc3CN2)cn1` [Example 59, N-((R)-2-Hydroxy-2-((S)-1,2,3,4-tetrahydroisoquinolin-3-yl)ethyl)-6-isopropoxynicotinamide], the IC50 came to 593 nM.
Then `COC(=O)N1CCC(Oc2cccc(C(=O)NC[C@@H](O)[C@@H]3Cc4ccccc4CN3)c2)CC1` [Example 60, Methyl 4-(3-(((R)-2-hydroxy-2-((S)-1,2,3,4-tetrahydroisoquinolin-3-yl)ethyl)carbamoyl)phenoxy)piperidine-1-carboxylate], with 3300 nM; and `CC(C)OC(=O)N1CCC(Oc2cc(C(=O)NC[C@@H](O)[C@@H]3Cc4ccccc4CN3)ccn2)CC1` [Example 61, Isopropyl 4-((4-(((R)-2-hydroxy-2-((S)-1,2,3,4-tetrahydroisoquinolin-3-yl)ethyl)carbamoyl)pyridin-2-yl)oxy)piperidine-1-carboxylate], with 104 nM.
As to `CC(C)COC(=O)N1CCC(Oc2cc(C(=O)NC[C@@H](O)[C@@H]3Cc4ccccc4CN3)ccn2)CC1` [Example 62, Isobutyl 4-((4-(((R)-2-hydroxy-2-((S)-1,2,3,4-tetrahydroisoquinolin-3-yl)ethyl)carbamoyl)pyridin-2-yl)oxy)piperidine-1-carboxylate], the IC50 is 102 nM. The IC50 values of the last two compounds are within 1.5-fold of each other.
Then `O=C(NC[C@@H](O)[C@@H]1Cc2ccccc2CN1)c1ccnc(OCC(F)(F)F)c1` [Example 63, N-((R)-2-hydroxy-2-((S)-1,2,3,4-tetrahydroisoquinolin-3-yl)ethyl)-2-(2,2,2-trifluoroethoxy)isonicotinamide], with 245 nM; and `CC(C)Oc1cc(C(=O)NC[C@@H](O)[C@@H]2Cc3ccccc3CN2)ccn1` [Example 64, N-((R)-2-hydroxy-2-((S)-1,2,3,4-tetrahydroisoquinolin-3-yl)ethyl)-2-isopropoxyisonicotinamide], with 261 nM.
The value for `NC(=O)COc1ccccc1C(=O)NC[C@@H](O)[C@@H]1Cc2ccccc2CN1` [Example 65, 2-(2-Amino-2-oxoethoxy)-N-((R)-2-hydroxy-2-((S)-1,2,3,4-tetrahydroisoquinolin-3-yl)ethyl)benzamide] was 2290 nM; that for `CC(=O)N1CCN(C(=O)c2ccc(C(=O)NC[C@@H](O)[C@@H]3Cc4ccccc4CN3)cc2)CC1` [Example 66, 4-(4-Acetylpiperazine-1-carbonyl)-N-((R)-2-hydroxy-2-((S)-1,2,3,4-tetrahydroisoquinolin-3-yl)ethyl)benzamide] was 329 nM.
The compound `COC(=O)N1CCN(C(=O)c2ccc(C(=O)NC[C@@H](O)[C@@H]3Cc4ccccc4CN3)cc2)CC1` [Example 67, Methyl 4-(4-(((R)-2-hydroxy-2-((S)-1,2,3,4-tetrahydroisoquinolin-3-yl)ethyl)carbamoyl)benzoyl)piperazine-1-carboxylate] registered an IC50 of 307 nM. The IC50 values of the last two compounds are within 1.5-fold of each other.
The value for `CC(=O)N1CCC(Oc2ccccc2C(=O)NC[C@@H](O)[C@@H]2Cc3ccccc3CN2)CC1` [Example 68, 2-((1-Acetylpiperidin-4-yl)oxy)-N-((R)-2-hydroxy-2-((S)-1,2,3,4-tetrahydroisoquinolin-3-yl)ethyl)benzamide] was 2260 nM; that for `CCOc1nc(C(=O)N2C3CCC2COC3)ccc1C(=O)NC[C@@H](O)[C@@H]1Cc2ccccc2CN1` [Example 70, 6-(3-Oxa-8-azabicyclo[3.2.1]octane-8-carbonyl)-2-ethoxy-N-((R)-2-hydroxy-2-((S)-1,2,3,4-tetrahydroisoquinolin-3-yl)ethyl)nicotinamide] was 121 nM; that for `COc1cc(C(=O)NC[C@@H](O)[C@@H]2Cc3ccccc3CN2)ccn1` [Example 71, N-((R)-2-Hydroxy-2-((S)-1,2,3,4-tetrahydroisoquinolin-3-yl)ethyl)-2-methoxyisonicotinamide dihydrochloride] was 939 nM.
As for `O=C(NC[C@@H](O)[C@@H]1Cc2ccccc2CN1)c1ccc(CC(=O)N2CCCCC2)nc1` [Example 72, N-((R)-2-Hydroxy-2-((S)-1,2,3,4-tetrahydroisoquinolin-3-yl)ethyl)-6-(2-oxo-2-(piperidin-1-yl)ethyl)nicotinamide dihydrochloride], the IC50 came to 585 nM.
Regarding `O=C(NC[C@@H](O)[C@@H]1Cc2ccccc2CN1)c1ccnc(C2CCOCC2)c1` [Example 73, N-((R)-2-Hydroxy-2-((S)-1,2,3,4-tetrahydroisoquinolin-3-yl)ethyl)-2-(tetrahydro-2H-pyran-4-yl)isonicotinamide dihydrochloride], the 50% inhibitory concentration (IC50) turned out to be 2270 nM.
For `O=C(NC[C@@H](O)[C@@H]1Cc2ccccc2CN1)c1cc(OC2CCOCC2)ncc1Cl` [Example 75, 5-Chloro-N-((R)-2-hydroxy-2-((S)-1,2,3,4-tetrahydroisoquinolin-3-yl)ethyl)-2-((tetrahydro-2H-pyran-4-yl)oxy)isonicotinamide dihydrochloride], it took 1200 nM to reach half-maximal inhibition (IC50). Compared with the last compound, the IC50 is about 1.9-fold lower.
With `COC(=O)N1CCC(Oc2cc(C(=O)NC[C@@H](O)[C@@H]3Cc4ccccc4CN3)ncn2)CC1` [Example 76, Methyl 4-((6-(((R)-2-hydroxy-2-((S)-1,2,3,4-tetrahydroisoquinolin-3-yl)ethyl)carbamoyl)pyrimidin-4-yl)oxy)piperidine-1-carboxylate dihydrochloride], the midpoint of inhibition, the IC50, lay at 262 nM.
Then `O=C(NC[C@@H](O)[C@@H]1Cc2ccccc2CN1)c1ccncc1` [Example 77, N-((R)-2-Hydroxy-2-((S)-1,2,3,4-tetrahydroisoquinolin-3-yl)ethyl)isonicotinamide dihydrochloride], with 8760 nM.
The value for `O=C(NC[C@@H](O)[C@@H]1Cc2ccccc2CN1)c1cccnc1` [Example 78, N-((R)-2-Hydroxy-2-((S)-1,2,3,4-tetrahydroisoquinolin-3-yl)ethyl)nicotinamide dihydrochloride] was 1700 nM.
The value for `O=C(NC[C@@H](O)[C@@H]1Cc2ccccc2CN1)c1ccc(C(=O)N2C3CCC2COC3)c(C(F)F)c1` [Example 85, 4-(3-Oxa-8-azabicyclo[3.2.1]octane-8-carbonyl)-3-(difluoromethyl)-N-((R)-2-hydroxy-2-((S)-1,2,3,4-tetrahydroisoquinolin-3-yl)ethyl)benzamide] was 279 nM; that for `O=C(NC[C@@H](O)[C@@H]1Cc2ccccc2CN1)c1ccnc(C(F)(F)F)c1` [Example 86, N-((R)-2-Hydroxy-2-((S)-1,2,3,4-tetrahydroisoquinolin-3-yl)ethyl)-2-(trifluoromethyl)isonicotinamide dihydrochloride] was 3820 nM.
Compound `COc1cc(C(=O)N2C3CCC2COC3)ccc1C(=O)NC[C@@H](O)[C@@H]1Cc2ccccc2CN1` [Example 87, 4-(3-Oxa-8-azabicyclo[3.2.1]octane-8-carbonyl)-N-((R)-2-hydroxy-2-((S)-1,2,3,4-tetrahydroisoquinolin-3-yl)ethyl)-2-methoxybenzamide hydrochloride] came in with a concentration for half-maximal inhibition (IC50) of 57 nM.
`CC(=O)N1CCC(c2nc3cc(C(=O)NC[C@@H](O)[C@@H]4Cc5ccccc5CN4)ccc3[nH]2)CC1` [Example 88, 2-(1-Acetylpiperidin-4-yl)-N-((R)-2-hydroxy-2-((S)-1,2,3,4-tetrahydroisoquinolin-3-yl)ethyl)-1H-benzo[d]imidazole-5-carboxamide] gave an IC50 of 187 nM. Against the preceding compound, the IC50 is about 3.3-fold higher.
Then `CCOc1cc(-c2nnc(C)o2)ccc1C(=O)NC[C@@H](O)[C@@H]1Cc2ccccc2CN1` [Example 89, 2-Ethoxy-N-((R)-2-hydroxy-2-((S)-1,2,3,4-tetrahydroisoquinolin-3-yl)ethyl)-4-(5-methyl-1,3,4-oxadiazol-2-yl)benzamide], with 203 nM; and `O=C(NC[C@@H](O)[C@@H]1Cc2ccccc2CN1)c1ccc(C(=O)N2CCCC2)cc1` [Example 90, N-((R)-2-Hydroxy-2-((S)-1,2,3,4-tetrahydroisoquinolin-3-yl)ethyl)-4-(pyrrolidine-1-carbonyl)benzamide], with 947 nM; and `O=C(NC[C@@H](O)[C@@H]1Cc2ccccc2CN1)c1ccc(C(=O)N2C3CCC2CC3)cc1` [Example 91, 4-(7-Azabicyclo[2.2.1]heptane-7-carbonyl)-N-((R)-2-hydroxy-2-((S)-1,2,3,4-tetrahydroisoquinolin-3-yl)ethyl)benzamide], with 123 nM.
In the case of `COC1CCN(C(=O)c2ccc(C(=O)NC[C@@H](O)[C@@H]3Cc4ccccc4CN3)cc2)CC1` [Example 92, N-((R)-2-Hydroxy-2-((S)-1,2,3,4-tetrahydroisoquinolin-3-yl)ethyl)-4-(4-methoxypiperidine-1-carbonyl)benzamide], the IC50 came to 310 nM.
Consider `O=C(NC[C@@H](O)[C@@H]1Cc2ccccc2CN1)c1ccc(C(=O)N2CCCCO2)cc1` [Example 93, N-((R)-2-Hydroxy-2-((S)-1,2,3,4-tetrahydroisoquinolin-3-yl)ethyl)-4-(1,2-oxazinane-2-carbonyl)benzamide], for which the IC50 is 759 nM. Against the preceding compound, the IC50 is about 2.4-fold higher.
